From PubChem BioAssay (NCI) come the findings set out here.

What all share (assay): NCI anticancer screen, dose series, 48 h
For assay [1], the system named is SR leukemia.
The test system of assay [2] is SF-295 CNS.
For assay [3], the system named is KM12 colon.
Assay [4] relates to SK-MEL-2 melanoma.
The subject of assay [5] is MDA-MB-231 breast.
Assay [6] relates to HCC-2998 colon.
The test system of assay [7] is PC-3 prostate.
Assay [8] concerns HOP-92 NSCLC.
Assay [9] relates to A498 renal.
Assay [10] has as its system HOP-62 NSCLC.

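Compound exposure: 48 hours, 5 concentrations, 96-well plates. At the GI50, growth is halved. TGI: total growth inhibition.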

In the case of `C=C1C(=O)O[C@H]2[C@H]1CC/C(COC(=O)NCCc1c[nH]c3ccc(OC)cc13)=C\CC[C@@]1(C)O[C@@H]21`, the GI50 in assay [1] is 1.02 µM; in assay [2], 10.3 µM; in assay [3], 6.49 µM; in [4], 1.84 µM; in assay [5], 1.97 µM; in [6] it was 2.34 µM. The GI50 is 1.99 µM in assay [7], 1.19 µM in [8], 10.5 µM in assay [9] and 3.49 µM in [10]. Besides, the TGI worked out at 9.33 µM in [1]; 22.2 µM in [2]; 23.2 µM in assay [3]; 4.18 µM in assay [4]; 4.44 µM in [5]; 5.64 µM in [6]. In addition, the TGI was 4.6 µM in assay [7], 2.87 µM in assay [8], 22.7 µM in [9] and 15.7 µM in [10].

For the compound `C=C(c1ccc(C(=O)N(C)c2ccccc2N)cc1)C(C)N1C(=O)[C@H]2CCCN2C(=O)c2ccccc21` (stereo not given in full), the GI50 was 18.7 µM in [1]; more than 100 µM in assay [2]; more than 100 µM in assay [3]; 99.5 µM in [4]; 58.5 µM in assay [5]; 23.6 µM in [6]. The GI50 in assay [7] was 26.2 µM; in assay [8] it was 37.2 µM; in [9], 19.2 µM; in assay [10], 31.6 µM. Besides, the TGI in assay [1] is 74.9 µM; in [2], more than 100 µM; in assay [3], more than 100 µM; in [4] it was more than 100 µM; in assay [5] it was more than 100 µM; in [6], more than 100 µM. Moreover, the TGI in assay [7] was more than 100 µM; in assay [8], more than 100 µM; in assay [9], 67.5 µM; in [10], more than 100 µM.

With `O=C(O)c1ccc(N/C=C2\C(=O)c3ccccc3OC2O)cc1O` (stereo not given), the GI50 in assay [1] was 5.21 µg/mL; in assay [2], 5.96 µg/mL; in assay [3], 23.4 µg/mL; in assay [4], 23.5 µg/mL; in assay [5], 22 µg/mL; in assay [6], 24.1 µg/mL. Also, the GI50 is 31.6 µg/mL in [7], 4.11 µg/mL in assay [8], 36.9 µg/mL in [9] and 24.8 µg/mL in assay [10]. The TGI was determined as 41 µg/mL in assay [1]; 28.7 µg/mL in [2]; 48.5 µg/mL in [3]; 51.1 µg/mL in assay [4]; 54.6 µg/mL in assay [5]; 45.4 µg/mL in assay [6]. In addition, the TGI in assay [7] is 107 µg/mL; in assay [8], 36.5 µg/mL; in [9], 83.9 µg/mL; in assay [10] it was 63.7 µg/mL.

Turning to `COc1ccc2c(c1)C(c1ccccc1Cl)=Nc1c(n[nH]c1C)N2`, the GI50 in assay [1] is 10.5 µM; in assay [2], more than 25 µM; in assay [3], 0.995 µM; in [4] it was more than 11.2 µM; in assay [5], more than 25 µM; in assay [6], more than 25 µM. The GI50 in assay [7] is more than 22.7 µM; in assay [8], more than 25 µM; in [9] it was 1.88 µM; in [10], more than 25 µM. The TGI was more than 25 µM in [1]; more than 25 µM in assay [2]; more than 25 µM in assay [3]; more than 23.4 µM in assay [4]; more than 25 µM in assay [5]; more than 25 µM in assay [6]. For the same compound, the TGI in assay [7], in assay [8], in assay [9] and in assay [10] was more than 25 µM each time.

For `COc1ccc2c(c1)C(=O)/C(=C/c1ncc([N+](=O)[O-])n1C)O2`, the GI50 in assay [1] was 0.0239 µM; in assay [2] it was 1.5 µM; in assay [3] it was 0.279 µM; in assay [4], 0.361 µM; in assay [5], 0.299 µM; in assay [6], 1.54 µM. Besides, the GI50 in assay [7] is 1.25 µM; in assay [8], 1.23 µM; in assay [9], 1.42 µM; in assay [10] it was 2.07 µM. The TGI in assay [1] is 1.35 µM; in [2] it was 3.88 µM; in assay [3], 0.973 µM; in [4], 1.61 µM; in [5] it was 0.826 µM; in assay [6] it was 4.59 µM. Moreover, the TGI is 5.46 µM in assay [7], 4.51 µM in assay [8], 2.98 µM in [9] and 5.03 µM in [10].

On to `COc1ccc(/C=C/C(=O)Oc2cc(O)cc(O)c2)cc1`, for which the TGI in assay [1] was more than 100 µM; in assay [2] it was 52.4 µM; in assay [3], 28.4 µM; in assay [4], more than 100 µM; in [5], more than 100 µM; in assay [6], more than 100 µM. Further, the TGI in [7] is more than 100 µM; in assay [8], more than 100 µM; in assay [9], more than 100 µM; in assay [10], 31.5 µM.

For the compound `Cc1ccc2c(c1)NC(=O)CC(c1ccccc1)=N2`, the TGI is 64.2 µM in assay [1]; more than 100 µM in [2]; more than 100 µM in assay [3]; more than 100 µM in [4]; 79.9 µM in assay [5]; more than 100 µM in [6]. Further, the TGI in assay [7], in assay [8], in assay [9] and in [10] was more than 100 µM throughout.

Turning to `c1cn2cc(-c3ccc4cn[nH]c4c3)nc(Nc3ccc(N4CCOCC4)cc3)c2n1`, the GI50 in assay [1] was 6.66 µM; in assay [2], 10.6 µM; in assay [3] it was 0.479 µM; in [4] it was 36.1 µM; in assay [5], 12.6 µM; in assay [6] it was 61.6 µM. Besides, the GI50 in assay [7] was 14.7 µM; in [8] it was 15.6 µM; in assay [9], 11.9 µM; in [10] it was 3.81 µM. The TGI in [1] is 27.5 µM; in [2], 29.5 µM; in [3], 59 µM; in [4], more than 100 µM; in assay [5], 26.7 µM; in [6] it was more than 100 µM. The TGI in assay [7] amounted to 35.4 µM; in [8] it was 33.8 µM; in assay [9] it was 36.2 µM; in assay [10], 16.1 µM.
